Laboratory results taken from ChEMBL document CHEMBL3414448, “Advances in the discovery of novel antimicrobials targeting the assembly of bacterial cell division protein FtsZ” (Eur J Med Chem, 2015).
Blank lines part the entries; values can stand above or below the compound they belong to.

Columns and labels:
[1] = target: T1, Cell division protein FtsZ (Staphylococcus aureus) (UniProt P0A031); assay: Inhibition of FtsZ in methicillin-resistant Staphylococcus aureus assessed as reduction in methicillin MIC (reference value: 32 ug/ml)
T1 sequence (whole entry): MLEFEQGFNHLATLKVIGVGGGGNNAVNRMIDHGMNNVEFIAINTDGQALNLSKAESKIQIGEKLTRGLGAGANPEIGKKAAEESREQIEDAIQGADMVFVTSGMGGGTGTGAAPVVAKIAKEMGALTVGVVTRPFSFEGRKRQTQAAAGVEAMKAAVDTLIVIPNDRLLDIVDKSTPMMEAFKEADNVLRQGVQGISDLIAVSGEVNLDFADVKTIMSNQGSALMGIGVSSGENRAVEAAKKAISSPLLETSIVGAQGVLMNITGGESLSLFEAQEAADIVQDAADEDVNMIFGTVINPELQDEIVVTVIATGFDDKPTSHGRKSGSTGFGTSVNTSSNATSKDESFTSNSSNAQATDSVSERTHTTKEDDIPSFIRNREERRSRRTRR

[2] = target: T2, Cell division protein FtsZ (Escherichia coli K-12) (UniProt P0A9A6); assay: Inhibition of Escherichia coli FtsZ assembly
T2 sequence (whole entry): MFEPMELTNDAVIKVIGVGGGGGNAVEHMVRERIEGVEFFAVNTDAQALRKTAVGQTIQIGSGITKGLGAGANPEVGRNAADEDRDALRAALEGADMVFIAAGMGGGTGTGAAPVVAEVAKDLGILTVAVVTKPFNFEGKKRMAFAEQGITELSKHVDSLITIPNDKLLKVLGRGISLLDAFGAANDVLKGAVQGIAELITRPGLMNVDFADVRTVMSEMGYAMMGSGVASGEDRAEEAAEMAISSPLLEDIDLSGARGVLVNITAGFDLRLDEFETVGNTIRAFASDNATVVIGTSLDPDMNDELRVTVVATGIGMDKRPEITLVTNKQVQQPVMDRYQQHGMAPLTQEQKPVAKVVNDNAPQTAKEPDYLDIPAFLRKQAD

[3] = target: T3, Cell division protein FtsZ (Bacillus subtilis (strain 168)) (UniProt P17865); assay: Inhibition of Bacillus subtilis FtsZ GTPase activity; conditions: concentration not given here
T3 sequence (whole entry): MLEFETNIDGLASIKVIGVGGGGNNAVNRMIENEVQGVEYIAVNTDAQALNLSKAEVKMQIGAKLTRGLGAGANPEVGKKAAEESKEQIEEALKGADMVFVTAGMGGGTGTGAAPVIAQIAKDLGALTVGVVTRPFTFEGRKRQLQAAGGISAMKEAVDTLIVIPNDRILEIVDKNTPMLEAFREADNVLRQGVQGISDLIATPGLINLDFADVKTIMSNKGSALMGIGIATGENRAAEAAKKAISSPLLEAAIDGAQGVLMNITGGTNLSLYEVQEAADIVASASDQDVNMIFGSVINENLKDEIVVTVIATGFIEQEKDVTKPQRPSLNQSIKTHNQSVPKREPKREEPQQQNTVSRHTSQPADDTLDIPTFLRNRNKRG

[4] = target: T2, Cell division protein FtsZ (Escherichia coli K-12); assay: Inhibition of FtsZ in Escherichia coli assessed as Z-ring containing cells level at 4 and 8 ug/ml (reference value: 88%); design: scale not given: the % may be the effect or the level left
[5] = Inhibition of FtsZ (unknown origin) assessed as reduction in frequency of Z-rings per unit cell length; conditions: concentration not given here
[6] = Activation of FtsZ (unknown origin) assessed as increase in enzyme GTPase activity at 30 uM

SMILES: CC(C)c1c(O)ccc2c1CC[C@H]1C(C)(C)CCC[C@]21C
MIC [1]: 4 µg/mL

SMILES: O=C(Oc1cc(OC(=O)c2ccc(O)c(Cl)c2)c2ccccc2c1)c1ccc(O)c(Cl)c1
inhibition [3]: < 20%

SMILES: NCC[C@H](O)C(=O)N[C@@H]1C[C@H](N)[C@@H](O[C@H]2O[C@H](CN)[C@@H](O)[C@H](O)[C@H]2O)[C@H](O)[C@H]1O[C@H]1O[C@H](CO)[C@@H](O)[C@H](N)[C@H]1O
Activity [4]: 35%

SMILES: COc1ccc2cc3[n+](cc2c1OC)CCc1cc2c(cc1-3)OCO2
inhibition [5]: 50%

SMILES: O=C(Oc1cc(OC(=O)c2cc(O)cc(O)c2)c2ccccc2c1)c1cc(O)c(O)c(O)c1
inhibition [3]: < 20%

More lines, now with the values ahead:

ID50 [2]: 2.1 µM
SMILES: COc1ccc(/N=C/c2ccc(OC(C)=O)c(OC)c2[N+](=O)[O-])cc1

ID50 [2]: 7.6 µM
SMILES: COc1c(OC(C)=O)ccc(/C=N/c2c(C(C)C)cccc2C(C)C)c1[N+](=O)[O-]

Activity [6]: 35%
SMILES: COc1cc(/C=C/C(=O)CC(=O)/C=C/c2ccc(O)c(OC)c2)ccc1O
